These results are taken from US12502372B2, “(9beta-H)-pimarane mother nucleus diterpenoid compound with anti-colon cancer activity and derivative thereof, and preparation method thereof” (NANJING UNIVERSITY OF CHINESE MEDICINE, priority 2023, dated 2025).

Molecules are shown by their SMILES.

For orientation: IC50 means the point on the concentration scale where inhibition reaches its midpoint.

Data set [1] has as its system HT-29 colon cancer cells. The experiment in a line: MTT proliferation inhibition (cell viability) on colon cancer cell line HT-29. It counts as cell-based. The settings on record: for IC50: Homo sapiens, HT-29 colon cancer cell line, 24 hours with drug, MTT method, OD 570 nm, read-out: IC50 ± SD, HT-29. As to the method:
(§1) Colon cancer cell lines HT-29 and SW620 (cell bank of Chinese Academy of Sciences) were cultured in a DMEM culture solution containing 10% fetal bovine serum (Gibco Company of America) at 37° C. under 5% CO2. During subculturing, a dish of tumor cells was taken out first, the culture solution was removed, and 3 mL of PBS was added to wash the cells twice; 1 mL of trypsin was added for digestion, 1 mL of culture solution was added after 2 minutes to stop the digestion, and the mixture was centrifuged at 1000 r/min and room temperature for 5 minutes; and a supernatant was removed, 1 mL of DMEM culture medium containing 10% fetal bovine serum was added, and the mixture was resuspended to obtain a cell suspension.
(§2) Different volumes of DMEM culture media were added to dilute the compounds into different concentrations. Meanwhile, a DMEM culture medium containing 0.1% DMSO was used as a negative control.
(§3) Tumor cells were suspended in a culture medium, inoculated into a 96-well plate (100 μL/well) by a cell density of 6×10^3, and cultured at 37° C. under 5% CO2 for 24 hours. In a logarithmic growth period of the tumor cell lines, different concentrations of compounds were added to culture the cells at 37° C. under 5% CO2 for 24 hours.
(§4) After 24 hours of interaction between the drugs and the tumor cells, 20 μL of MTT solution (5 mg/mL) was added into each well to incubate the cells in a sterile incubator for 3 hours. A supernatant was removed completely, and 150 μL of DMSO was added into each well to react on a shaker for 30 minutes, so as to dissolve bluish violet formazan crystals. An OD value was determined at a wavelength of 570 nm with a microplate reader. IC50 (median inhibitory concentration) values of the compounds were calculated by GraphPad Prism 8 software, and 5-FU was used as a positive control.
In general terms: Formazan colour is commonly taken as a measure of viable cells.

Data set [2] deals with colon cancer cell line SW620. Nature of the data set: MTT proliferation inhibition (cell viability) on colon cancer cell line SW620. It counts as cell-based. The note with it: for IC50: Homo sapiens, SW-620, SW620 colon cancer cell line, 24 hours with drug, MTT method, OD 570 nm, read-out: IC50 ± SD, SW620. As to the method: as §1, §2, §3, §4

On to `O=c1[nH]cc(F)c(=O)[nH]1` [Compound 5-FU, 5-fluorouracil, reference compound], for which the IC50 came to 9.18 ± 1.61 µM in data set [1] and 14.2 ± 1.43 µM in data set [2].

With `C[C@@H](C(=O)O)[C@@H]1[C@H]2C[C@H]3c4occc4C(=O)C[C@H]3[C@]1(CCC(=O)O)CO2` [Compound 1, secoicacinlivitholide F], the IC50 in data set [1] was > 20 µM.

In the case of `COC(=O)CC[C@]12CO[C@H](C[C@H]3c4occc4C(=O)C[C@H]31)[C@H]2[C@@H](C)C(=O)O` [Compound 2, secoicacinlivitholide G], in data set [1] (HT-29, compared with 5-FU), the “inhibiting effect on HT-29 relative to positive drug 5-FU” value was “about three times that of the positive drug 5-FU”. The “anti-proliferation effect on HT-29 (in words)” value in data set [1] (HT-29, stated stronger than positive drug 5-FU) was “remarkable anti-proliferation effects”. Besides, the IC50 in data set [1] was determined as 3.12 ± 1.63 µM; in data set [2], 9.92 ± 1.68 µM. Besides, the “anti-proliferation effect on SW620 (in words)” value in data set [2] (SW620, stated stronger than positive drug 5-FU) is given as “remarkable anti-proliferation effects”.
